Format in all cases: in vivo
Common to all, as to set-up: unit not given here

In experiment [1] the test system is sugar beet (Beta vulgaris). Nature of the experiment: Postemergence herbicidal activity in sugar beet, crop. Conditions: visual rating after 21 d, probit analysis, dose to kill or control 20 percent. The procedure:
(§1) Seeds of sugar beet and the desired weed species were planted in Sun Gro MetroMix® 360 planting mixture, which typically has a pH of 6.0 to 6.8 and an organic matter content of about 30 percent, in plastic pots with a surface area of 95 cm^2. When required to ensure good germination and healthy plants, a fungicide treatment and/or other chemical or physical treatment was applied. The plants were grown for 15-28 d in a greenhouse with an approximate 15-h photoperiod which was maintained at about 23-29° C. during the day and 22-28° C. during the night. Nutrients and water were added on a regular basis and supplemental lighting was provided with overhead metal halide 1000-Watt lamps as necessary. The sugar beet plants were utilized for testing when they reached the third or fourth true leaf stage. The weed species were utilized at the fourth true leaf stage.
(§2) A weighed amount, determined by the highest rate to be tested, of each test compound was dissolved in 4 mL of a 97:3 v/v mixture of acetone and DMSO to obtain concentrated stock solutions. […] The concentrated stock solutions obtained were diluted with 20 mL of an aqueous mixture containing acetone, water and Agri-Dex crop oil concentrate, in a 16.7:82.1:1.25 v/v ratio to obtain spray solutions containing the highest application rates. Additional application rates were obtained by serial dilution of 12 mL of the high rate solution into a solution containing 2 mL of 97:3 v/v mixture of acetone and DMSO and 10 mL of an aqueous mixture containing acetone, water and Agri-Dex crop oil concentrate, in a 16.7:82.1:1.25 v/v ratio to obtain ½×, ¼×, ⅛× and 1/16× rates of the high rate. Compound requirements are based upon a 12 mL application volume at a rate of 187 L/ha. Formulated compounds were applied to the plant material with an overhead Mandel track sprayer equipped with 8002E nozzles calibrated to deliver 187 L/ha over an application area of 0.503 m^2 at a spray height of 18 inches (43 cm) above the average plant canopy height. Control plants were sprayed in the same manner with the solvent blank.
(§3) The treated plants and control plants were placed in a greenhouse as described above and watered by sub-irrigation to prevent wash-off of the test compounds. After 21 d, the condition of the test plants as compared with that of the untreated plants was determined visually and scored on a scale of 0 to 100 percent where 0 corresponds to no injury and 100 corresponds to complete kill.
(§4) By applying the well-accepted probit analysis as described by J. Berkson in Journal of the American Statistical Society 1953, 48, 565, and by D. Finney in “Probit Analysis” Cambridge University Press (1952), the above data can be used to calculate GR20 and GR80 values, which are defined as growth reduction factors that correspond to the effective dose of herbicide required to kill or control 20 percent or 80 percent, respectively, of a target plant.

For experiment [2], the system named is lambsquarters (Chenopodium album). Description: Postemergence herbicidal activity in sugar beet, lambsquarters. Conditions: sugar beet test, visual rating after 21 d, probit analysis, dose to kill or control 80 percent. The procedure: as §1, §2, §3, §4
The test system of experiment [3] is purple deadnettle (Lamium purpureum). Nature of the experiment: Postemergence herbicidal activity in sugar beet, purple deadnettle. Conditions: sugar beet test, visual rating after 21 d, probit analysis, dose to kill or control 80 percent. The procedure:
as §1, §2
The treated plants and control plants were placed in a greenhouse as described above and watered by sub-irrigation to prevent wash-off of the test compounds. After 21 d, the condition of the test plants as compared with that of the untreated plants was determined visually and scored on a scale of 0 to 100 percent where 0 corresponds to no injury and 100 corresponds to complete kill. […]

Structures are written as SMILES.

With `CONC(=O)c1nc(-c2ccc(Cl)c(OC)c2F)cc(N)c1Cl` [Compound 2, 4-Amino-3-chloro-6-(4-chloro-2-fluoro-3-methoxyphenyl)-N-methoxypicolinamide], the “BEAVA GR20” value in experiment [1] is given as above 35. In experiment [2], the “CHEAL GR80” value is 21.5. The “LAMPU GR80” value in experiment [3] is below 4.38.

Values taken from patent US20130324412A1, “N-ALKOXYAMIDES OF 6-(SUBSTITUTED PHENYL)-4-AMINOPICOLINATES AND 2-(SUBSTITUTED PHENYL)-6-AMINO-4-PYRIMIDINECARBOXYLATES AND THEIR USE AS SELECTIVE HERBICIDES FOR CROPS” (DOW AGROSCIENCES LLC, priority 2009, published 2013).
